Where two headings read alike, the source gives them in different places.
Experiments:
[1] = test system: thoracic aortae of wild type mice; experiment: Vascular smooth muscle reactivity in isolated aorta (DMT myograph), wild type; parameters: species or system mouse; settings: for EC50: Mus musculus, phenylephrine pre-contracted, read-out: EC50 for the relaxing effect
[2] = test system: thoracic aortae of TRPV2−/− mice; experiment: Vascular smooth muscle reactivity in isolated aorta (DMT myograph), TRPV2 knockout; parameters: species or system mouse; developed tension: dose or concentration left out as unconfirmed; settings: for EC50: Mus musculus, phenylephrine pre-contracted, read-out: EC50 for the relaxing effect
WT mice = experiment: Invasive cardiac hemodynamics in intact anesthetized mice (LV pressure development), wild type; format: in vivo, mouse
Protocol: (§1) All animal procedures were performed with the approval of the Institutional Animal Care and Use Committee (IACUC) of the University of Cincinnati and in accordance with the Guide for the Care and Use of Laboratory Animals (NIH, revised 1996). All wild type (WT) mice (B6129SF2/J F2 and C57BL6J, Jackson laboratories) and TRPV2^−/− mice (breeding pairs provided by Dr. M. Caterina, John's Hopkins, Baltimore, Md.) were males at 12-16 weeks of age (REF). Prior to experiments, mice were maintained on normal rodent chow and water ad libitum, and on a 14 hr/10 hr light/dark cycle (6 AM to 8 PM).
Measurements of left ventricular performance and regional blood flow were performed in separate groups of WT and TRPV2^−/− mice as previously described {Lorenz, 2008#1}. Briefly, mice were anesthetized with an intraperitoneal injection of ketamine (50 μg/gBW) and inactin (thiobutabarbital, 100 μg/gBW, Sigma, MA). A tracheotomy was performed (PE-90), and body temperature was monitored and maintained with a feedback-controlled heating table. The right femoral artery was cannulated with fluid-filled polyethylene tubing for measurement of blood pressure and connected to a low compliance pressure transducer (COBE Cardiovascular, Arvada, Colo.). The right femoral vein was cannulated for delivery of drugs. A high fidelity, 1.2F Scisense pressure catheter (Scisense, London, ON, Canada) was inserted into the right carotid artery and advanced into the left ventricle to monitor cardiac performance. ECG leads were placed on the right and left arms, and left leg and connected to a BIOAmp (ADInstruments, Colorado Springs, Colo.). For carotid blood flow measurements, the left carotid artery was isolated and fitted with a 0.5-PSB perivascular flow probe connected to a TS420 flow meter (Transonic Systems, Ithaca, N.Y.). Pressure, flow, and ECG signals were recorded and analyzed using a PowerLab system (ADInstruments). Hemodynamic measurements were taken at the basal state and after the administration of 30 and 100 μg/g doses of probenecid i.v., with 5 minutes between each dose (100 μg/μl delivered as 0.3 and 1.0 μl/gBW bolus). Measurements were taken from the final 30-40 seconds of each dosage period. Maximum dP/dt (dP/dtmax) and dP/dt at 40 mmHg of developed pressure (dP/dt40) were calculated from the first derivative of the pressure waveforms. Cerebral vascular resistance (CVR) was calculated from recorded channels of mean arterial pressure and mean cerebral blood flow (CVR=MAP/CBF).
Statistical analysis was performed by analysis of variance (ANOVA) using either a single factor within-subjects design, or a two- or three-factor mixed design with repeated measures as appropriate. Individual contrasts were used to compare group effects and interactions when needed, and the Tukey post-hoc test was used to compare individual means where appropriate (SigmaStat v3.5, Point Richmond, Calif.). Data are presented as means±S.E.M., and differences were regarded as significant at P<0.05.

TRPV2−/− mice = experiment: Invasive cardiac hemodynamics in intact anesthetized mice (LV pressure development), TRPV2 knockout; format: in vivo, mouse; settings: probenecid 30 and 100 μg/g i.v. bolus
Protocol: as §1
Measurements of left ventricular performance and regional blood flow were performed in separate groups of WT and TRPV2^−/− mice as previously described {Lorenz, 2008#1}. […] A tracheotomy was performed (PE-90), and body temperature was monitored and maintained with a feedback-controlled heating table. […] Pressure, flow, and ECG signals were recorded and analyzed using a PowerLab system (ADInstruments). […] Maximum dP/dt (dP/dtmax) and dP/dt at 40 mmHg of developed pressure (dP/dt40) were calculated from the first derivative of the pressure waveforms. Cerebral vascular resistance (CVR) was calculated from recorded channels of mean arterial pressure and mean cerebral blood flow (CVR=MAP/CBF). […]

isolated aortae = experiment: Vasoconstrictor effect of probenecid in isolated aortae (cumulative concentration-force relationship); parameters: species or system mouse
TRPV2 = target: T1, TRPV2 (Homo sapiens, UniProt Q9Y5S1); settings: cited from earlier work
T1 sequence (Q9Y5S1 1-764): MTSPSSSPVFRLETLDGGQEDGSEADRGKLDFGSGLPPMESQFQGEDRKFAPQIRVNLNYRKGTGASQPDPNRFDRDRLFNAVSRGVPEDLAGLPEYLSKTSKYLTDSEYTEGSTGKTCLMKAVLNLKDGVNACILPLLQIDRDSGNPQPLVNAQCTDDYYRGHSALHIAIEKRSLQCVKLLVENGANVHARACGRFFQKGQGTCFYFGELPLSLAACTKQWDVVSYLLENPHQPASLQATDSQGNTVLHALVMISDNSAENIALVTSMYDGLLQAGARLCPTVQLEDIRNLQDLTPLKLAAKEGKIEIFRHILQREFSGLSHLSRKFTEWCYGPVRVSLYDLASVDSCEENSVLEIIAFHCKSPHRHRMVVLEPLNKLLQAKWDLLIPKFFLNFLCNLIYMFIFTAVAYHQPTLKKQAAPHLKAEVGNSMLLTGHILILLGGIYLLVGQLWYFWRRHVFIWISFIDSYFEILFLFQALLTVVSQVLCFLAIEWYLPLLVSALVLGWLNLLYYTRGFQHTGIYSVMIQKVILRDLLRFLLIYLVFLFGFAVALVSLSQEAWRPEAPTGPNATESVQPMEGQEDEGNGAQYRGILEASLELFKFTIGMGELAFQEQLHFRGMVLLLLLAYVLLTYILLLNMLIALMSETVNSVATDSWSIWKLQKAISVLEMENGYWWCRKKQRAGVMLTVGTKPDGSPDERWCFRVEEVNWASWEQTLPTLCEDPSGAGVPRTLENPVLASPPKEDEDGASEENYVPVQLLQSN

[3] = test system: isolated WT cardiomyocytes; settings: putatively through TRPV2 stimulation; cited from earlier work
[4] = endothelium-denuded (−E), pre-contracted with 3 mM phenylephrine

## CNC[C@H](O)c1cccc(O)c1 [phenylephrine]
[1]; endothelium-denuded (−E), n=8
  maximal developed tension in response to phenylephrine: 5.99±0.74 mN
[1]; intact endothelium (+E)
  maximal developed tension in response to phenylephrine: 1.45±0.12 mN
[2]; endothelium-denuded (−E), n=8
  maximal developed tension in response to phenylephrine: 6.07±0.55 mN
[2]; intact endothelium (+E)
  maximal developed tension in response to phenylephrine: 1.75±0.25 mN

## CCCN(CCC)S(=O)(=O)c1ccc(C(=O)O)cc1 [probenecid]
WT mice; WT mice, low (30 mg/kg) and high (100 mg/kg) doses
  lusitropy: increased lusitropy
WT mice; WT mice, probenecid 30 and 100 μg/g i.v. bolus
  contractile function (LV dP/dtmax, dP/dt40): robust stimulation of contractile function
WT mice; after i.v. bolus administration
  time to maximal effect on LV dP/dt: maximal within one minute
WT mice; after i.v. bolus administration, at the time of reported measurement
  duration of stable effect on LV dP/dt: at least 5 minutes
WT mice; rodents, summary statement
  cardiac relaxation and diastolic function: improved cardiac relaxation and improved diastolic function
TRPV2−/− mice
  contractile function (LV dP/dtmax, dP/dt40), effect relative to WT: markedly attenuated
[1]; intact endothelium (+E)
  EC50: 670 ± 210 µM
[1]; without endothelium (−E)
  EC50: 4560 ± 340 µM
[1]; [4]
  dilatory response, concentration threshold: no significant dilatory response until a concentration of 1 mM
[1]; endothelium-denuded (−E), pre-contracted with phenylephrine, 10 mM
  developed tension at 10 mM probenecid: about 25 % of maximum
[2]; intact endothelium (+E)
  EC50: 520 ± 110 µM
[2]; without endothelium (−E)
  EC50: 4590 ± 520 µM
[2]; [4]
  dilatory response, concentration threshold: no significant dilatory response until a concentration of 1 mM
[2]; endothelium-denuded (−E), pre-contracted with phenylephrine
  developed tension: about 25 % of maximum
Isolated aortae; low and high doses, even in deendothelialized vessels (discussion)
  vasoactive effect: no significant vasoactive effect
Isolated aortae; with or without intact endothelium, concentrations as high as 10 mM
  vasoconstrictor effect (force production): no evidence was found of increased force production
TRPV2
  TRPV2 agonist activity: selective agonist of TRPV2
[3]
  cytosolic Ca2+ concentrations and Ca2+ sparks: increases cytosolic Ca^2+ concentrations and increased Ca^2+ sparks
